# Source: patent publication US7893199B2, “Peptides having neutrophil-stimulating activity” (National University Corporation Gunma University, priority 2006, dated 2011)
# Where no end group is shown, it is not given here.
# Legend:
# [1] = tested on: HL-60 cells differentiated into the neutrophil-like cells; assay: β-hexosaminidase-secreting activity of neutrophil-like differentiated HL-60 cells; type: cell-based, human; details: differentiated HL-60 cells; read-out: EC50, β-hexosaminidase-secreting activity
# How it was run: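 HL-60 cells were differentiated with 500 μM db-cAMP for 3 days at 37 °C, then stimulated with peptide for 10 min in HBHS/0.1% BSA, pH 7.4, containing 5 μg/ml cytochalasin B and DNase I. Released β-hexosaminidase was read at 405 nm after p-nitrophenyl-N-acetylglucosaminide hydrolysis (pH 4.5, 37 °C, 1 h). Secretion is expressed relative to 10 μM fMLP, with total enzyme from 0.05% Triton X-100 lysis.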
# [2] = tested on: differentiated HL-60 cells; assay: migration activity (Chemotaxis Index) of differentiated HL-60 cells; type: cell-based, human
# Description: (3) Measurement of Migration Activity
# The cells were collected by centrifuging the suspension of the differentiated HL-60 cells (1,000 rpm, 5 minutes, 4° C.). After that, the following operation was repeated three times to wash the cells: 10% FBS-RPMI1640 was added to the cells; the mixture was suspended by inversion; and the mixture was centrifuged again (1,000 rpm, 5 minutes, 4° C.). Then, a medium (10% FBS-RPMI1640) was added so that a cell density was 4×10^6 cells/ml, thereby a cell suspension was prepared. Subsequently, 1 ml of each peptide solution (dissolved in 10% FBS-RPMI 1640) was transferred to each well of a 24-well plate, and the plate was incubated at 37° C. for 20 minutes. After that, 500 μl of the cell suspension (2×10^6 cells) were put in Chemotaxicell (KURABO […] LTD., 3 μm) and the Chemotaxicell was set in a plate, followed by incubation in the presence of 5% CO2 at 37° C. for 1 hour. Then, the Chemotaxicell was removed and the solution in each well of the plate was pipetted. The cells migrated to the plate side was suspended well and the number of the cells were measured. Note that the migration activity by the peptide was represented by a ratio of the number of the cells to the number of the cells passing the Chemotaxicell at the time of non-stimulation (Chemotaxis Index, CI).
# [3] = target: T1, bovine Gi1-G protein (Bos taurus, UniProt P63097); assay: G protein activation ability (GTP hydrolysis) with purified Gi1; type: biochemical
# T1 construct: made in house; host or cells: E. coli
# T1 sequence (P63097 whole entry): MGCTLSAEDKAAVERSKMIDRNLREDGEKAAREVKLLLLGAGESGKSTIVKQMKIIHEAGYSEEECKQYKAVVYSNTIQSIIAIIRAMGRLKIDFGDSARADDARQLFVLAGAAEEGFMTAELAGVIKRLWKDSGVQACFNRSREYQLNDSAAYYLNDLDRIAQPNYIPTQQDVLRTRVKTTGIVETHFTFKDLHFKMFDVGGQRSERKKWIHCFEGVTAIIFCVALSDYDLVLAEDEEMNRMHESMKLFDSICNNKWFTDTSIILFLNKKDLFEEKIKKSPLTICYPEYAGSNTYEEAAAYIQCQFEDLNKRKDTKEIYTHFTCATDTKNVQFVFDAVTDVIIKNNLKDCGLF
sequence,measurement,setting,value
MLWNLLALHQIGQRTISTASHRH [No. 019],EC50,[1],200 nM
same,concentration of migration activity compared with that of β-hexosaminidase-secreting activity,[2],confirmed at the concentration lower than the concentration at which β-hexosaminidase-secreting activity was confirmed
same,desensitization of migration activity with increasing concentration of the peptide,[2],subjected to desensitization completely
same,activation of purified Gi1 protein,[3],activated
